Results published in patent publication US6733998B1, “Micromonospora echinospora genes coding for biosynthesis of calicheamicin and self-resistance thereto” (priority 1998, dated 2004).

Assays:
yeast = assay: Calicheamicin resistance on transgenic expression of calC in yeast; assay type: cell-based
Source text: (§1) DNA containing calC was cloned into an inducible vector, using known methods, resulting in overexpression of calC. The polypeptide product (CalC) was then isolated and purified to homogeneity. […] Another aspect of the invention is an expression vector containing calC or a fragment of calC coding for a bioactive molecule. There is also provided a transformed host cell, preferably bacteria, more preferably E. coli, containing calC or a fragment of calC coding for a bioactive molecule. Such transgenic expression of calC results in an 10^5-fold increase in calicheamicin resistance in E. coli, a 100-fold increase in resistance in S. lividans, and a 50-fold increase in resistance in yeast.

E. coli [1] = assay: Calicheamicin resistance on transgenic expression of calC in E. coli; assay type: cell-based
Source text: as §1

[2] = tested on: supercoiled pBlusecript plasmid DNA; assay: In vitro calicheamicin-induced DNA cleavage assay (agarose gel); assay type: biochemical
Protocol: To test this theory, preliminary assays were performed with supercoiled pBlusecript plasmid DNA (“pBS”) as the template, and dithiothreitol (“DTT”) as the reductive initiator. In a typical assay, purified mbp-CalC (15.0 nM) and 30.0 nM calicheamicin were preincubated for 15 min. in a total volume of 25 μL 40 mM Tris-Cl, pH 7.5, at 37° C. Then 2.5 μL 10 mM DTT stock solution was added to the assay solution, and the assay was incubated an additional 1 hour at 37° C. DNA fragmentation was assessed by electrophoresis on a 1% agarose gel stained with ethidium bromide.
Reconstitution of apo-mbp-CalC was accomplished by preincubation with 1 mM FeSO4 (Fe^+2) or FeCl3 (Fe^+3) prior to the activity assay as previously described.

CalC = assay: Interaction of calicheamicin with CalC measured by CalC tryptophan fluorescence; assay type: binding, Micromonospora echinospora
Source text: CalC has 5 tryptophan and no cysteine residues and is unaffected by the reductive activator dithiothreitol (DTT). As the concentration of calicheamicin (3) increases in the absence of DTT there is little change in the CalC Trp fluorescence intensity.

S. lividans = assay: Calicheamicin resistance on transgenic expression of calC in S. lividans; assay type: cell-based
Source text: as §1

E. coli [3] = assay: Growth of cosmid/plasmid-carrying clones on LB plates containing calicheamicin (maximum tolerated concentration); assay type: cell-based; settings: for Maximum tolerated concentration of calicheamicin: LB plates
Protocol: To isolate the gene(s) responsible for calicheamicin resistance in Micromonospora, clones conferring calicheamicin resistance were selected by growth of a Micromonospora genomic bifunctional cosmid library on LB plates containing ampicillin (50 μg ml^−1) and calicheamicin (0.25 μg ml^−1). […] Restriction mapping of these clones localized the desired phenotype to a ˜2kb PstI-SacI fragment of DNA. (FIG. 2). Maximum tolerated concentrations of calicheamicin on the LB plates was ascertained. The results are as follows:
The proximal 1 kb of this fragment carried the single orf calD while the distal 1 kb presented orf calC. […] Therefore, it was hypothesized that calD was not responsible for calicheamicin resistance. To rule out calD as being responsible for calicheamicin resistance, a subclone was engineered (pJT1224) to contain an intact calD, but the truncated calC gene. This subclone was not able to confer resistance to calicheamicin. Next, a subclone containing the calC region was constructed (pJT1232). This clone conferred calicheamicin resistance, as indicated in the above chart.
To ascertain the amino acid sequence of CalC and learn its properties, calC was cloned into a pMAL-C2 vector. (pMAL-C2 by itself could not confer calicheamicin resistance. See above chart.) The resulting plasmid, pRE7, which contained calC, conferred resistance to calicheamicin. See above chart. Plasmid pRE7 was then induced with isopropyl Beta-D-thiogalactoside (“IPTG”) to overexpress CalC. Induced pRE7 conferred resistance to calicheamicin and produced a maltose-binding protein CalC fusion protein (mbp-CalC). This resulting overexpression of CalC increased calicheamicin resistance 10^2-fold in vivo. See above chart.

[4] = tested on: break light A (calicheamicin recognition sequence 5′-TCCT-3′); assay: Molecular break light assay, break light A; assay type: biochemical; settings: for Maximum fluorescence obtained upon cleavage of break light A: excess DTT
Source text: (§2) The invention further provides for a method of assaying the calicheamicin-induced DNA cleavage and its CalC-mediated inhibition using the molecular break light assay. Two molecular break lights (MLBs) for the experiments are described in example 7. Break light A is comprised of a 10-base pair stem which contained the known calicheamicin recognition sequence 5′-TCCT-3′, while break light B carries the BamHI endonuclease recognition sequence 5′-GGATCC-3′. The 5′-fluorophore of both probes was fluorescein (FAM, absorbancemax=485 nm, emissionmax=517 nm) while the corresponding 3′-quencher was 4-(4′-dimethylaminophenylazo)benzoic acid (DABCYL). Generally, MLBs operate by a separation of the fluorophore-quencher pair resulting a corresponding fluorescent signal.
(§3) The invention further provides for a method of assaying the calicheamicin-induced DNA cleavage and its CalC mediated inhibition using the molecular break light assay. Break light A was comprised of a 10-base pair stem which contained the known calicheamicin recognition sequence 5′-TCCT-3′, while break light B carried the BamHI endonuclease recognition sequence 5′-GGATCC-3′. […] The loop of both probes consisted of a T4 loop to ensure non-hybridizing interactions. The 5′-fluorophore of both probes was fluorescein (FAM, absorbancemax=485 nm, emissionmax=517 nm) while the corresponding 3′-quencher was 4-(4′-dimethylaminophenylazo)benzoic acid (DABCYL). Previous studies have shown DABCYL to serve as a universal quencher in molecular beacons and there is significant spectral overlap (1.02×10^−15 M^−1 cm^3) between the emission spectrum of FAM and the absorption spectrum of DABCYL.
Enzymalic Cleavage as Proof of Principle. […] Specifically, only break light B should cleave in the presence of the restriction endonuclease BamHI while both A and B should be digested by the non-specific nuclease DNaseI. […] In comparison, control samples containing break lights alone or break lights in the presence of BSA gave no change in fluorescence over >2 hr at 37° C. Given the lack of fluorescence in the absence of enzyme, the designed break lights show no appreciable melting at the designated assay temperature.
Enediyne-Catalyzed Cleavage. Previous assays for enediyne cleavage of DNA relied upon discontinuous assays using radioactive DNA probes, electrophoresis and subsequent phosphoimager analysis. In contrast, by using break lights one can directly follow the extent of DNA cleavage by a specific enediyne in real time with high sensitivity. […] Under the conditions described, this assay allows the detection of 1 in the pM range. This sensitivity compares to that of the biochemical induction assay (BIA), the method of choice in detecting DNA-damaging agents. […] This supports the view that the specificity of 1 is more dependent upon context and perhaps less so on DNA sequence. It should also be noted that 1 leads to predominately double-stranded cleavage while 2 provides single-stranded nicks and the current molecular break light assay can not distinguish these two phenomena.
CalC inhibits calicheamicin mediated DNA cleavage. […] 3.6 pM break light A is coincubated with 3.5 nM calicheamicin with increasing amounts of CalC (0.0 nm, 1.3 nm, 2.6 nm, 3.9 nm, 5.2 nm). Complete inhibition of calicheamicin is achieved with roughly 2-fold excess of CalC. CalC has no effect on esperamicin-induced cleavage of DNA (data not shown).

[5] = tested on: break light B (BamHI recognition sequence 5′-GGATCC-3′); assay: Molecular break light assay, break light B; assay type: biochemical
Source text: as §2
as §3, with “Previous studies have shown DABCYL to serve as a universal quencher in molecular beacons and there is significant spectral overlap (1.02×10^−15 M^−1 cm^3) between the emission spectrum of FAM and the absorption spectrum of DABCYL.” left out
Enzymalic Cleavage as Proof of Principle. […] In comparison, control samples containing break lights alone or break lights in the presence of BSA gave no change in fluorescence over >2 hr at 37° C. Given the lack of fluorescence in the absence of enzyme, the designed break lights show no appreciable melting at the designated assay temperature.
Consistent with this finding, PAGE analysis of the reaction products confirmed the presence of a […] after excess treatment with BamHI which is completely degraded upon DNaseI digestion. As a result, the fluorescence maxium observed with excess BamHI was designated 100% cleavage for the BamHI kinetic studies described below. […]

HT1080 (human) cell line = assay: Calicheamicin resistance on transgenic expression of calC in HT1080 cell line; assay type: cell-based
Source text: The present invention provides for the transformation of human cells with the calC gene. The transgenic expression of calC in the HT1080 (human) cell line increased its resistance to calicheamicin 10-fold. This technique allows bone marrow cells, for example, to be removed from a patient being treated with calicheamicin, and for these cells to be transformed with calC, and for the transformed cells to be returned to the patient. This allows the patient to tolerate treatment with calicheamicin or allows the patient to receive higher doses of calicheamicin as the returned human-calC-transformed cells have calicheamicin resistance. The transformation is performed by methods known in the art. The embodiment of the invention would be applicable to many diseases being treated with calicheamicin.

In the case of calicheamicin, the “Increase in calicheamicin resistance on transgenic expression of calC” value (yeast) is reported as 50 fold, the “Increase in calicheamicin resistance on transgenic expression of calC” value (E. coli [1]) is reported as 10^5 fold and the DNA cleavage ([2]; in the absence of DTT) is reported as “no DNA cleavage”. For the same molecule, the DNA cleavage ([2]; in the presence of DTT and calicheamicin) was “efficient cleavage”, the “Binding to CalC (CalC Trp fluorescence intensity)” value (CalC; addition of DTT to activate calicheamicin) was “increased binding” and the “Change in CalC Trp fluorescence intensity” value (CalC; increasing calicheamicin concentration, absence of DTT) was “little change”. The “Increase in calicheamicin resistance on transgenic expression of calC” value (S. lividans) was 100 fold, the “Maximum tolerated concentration of calicheamicin” value (“Maximum tolerated concentration” below) (E. coli [3]; cosmids 3a, 4a, 10a, 13a, and 16a) was 0.5 µg/mL and the “Maximum tolerated concentration” value (E. coli [3]; induced pRE7 (IPTG)) was 50.0 µg/mL. The “Maximum tolerated concentration” value (E. coli [3]; pJT1214 and pJT1232) was 5.0 µg/mL, the “Maximum tolerated concentration” value (E. coli [3]; pJT1224, pAP6, Pre1, and control plasmids pUC18, pBluescript, and pMAL-C2) was <0.01 µg/mL and the “Maximum tolerated concentration” value (E. coli [3]; pRE7 (calC in pMAL-C2)) was 20.0 µg/mL. The “Increase in calicheamicin resistance on overexpression of CalC” value (E. coli [3]; induced pRE7, in vivo) was 10^2 fold, the “Maximum fluorescence obtained upon cleavage of break light A” value ([4]; 3.2 nM break light A, 37° C.) was “identical to that observed with DNaseI” and the “Rate of cleavage of molecular break light B compared with break light A” value [5] was “identical rate”. For the same molecule, the “Increase in resistance to calicheamicin on transgenic expression of calC” value (HT1080 (human) cell line) was 10 fold.

esperamicin was tested, and the “Maximum fluorescence obtained upon cleavage of break light A” value ([4]; 3.2 nM break light A, 37° C.) was “identical to that observed with DNaseI”.

B1: CalC: polypeptide conferring calicheamicin resistance, 181 amino acids, SEQ ID. NO. 2 (protein)
chain: MTQEKTAPAAKSTTTKSTAAKKPKPPNYDPFVRHSVTVKADRKTAFKTFLEGFPEWWPNNFRTTKVGAPLGVDKKGGRWYEIDEQGEEHTFGLIRKVDEPDTLVIGWRLNGFGRIDPDNSSEFTVTFVADGQKKTRVDVEHTHFDRMGTKHAKRVRNGMDKGWPTILQSFQDKIDEEGAKK
modifications: Bacteria
In the case of B1, the “Effect on esperamicin-induced cleavage of DNA” value [4] is reported as “no effect”, the “Excess of CalC giving complete inhibition of calicheamicin-mediated DNA cleavage” value ([4]; 3.6 pM break light A, 3.5 nM calicheamicin) is reported as “roughly 2 fold” and the “Inhibition of calicheamicin mediated DNA cleavage” value ([4]; CalC in a two-fold molar excess of calicheamicin) is reported as “completely abolishes”.

B2: BamHI: restriction endonuclease (protein, UniProt P23940 1-213, looked up)
Type II restriction enzyme …: MEVEKEFITDEAKELLSKDKLIQQAYNEVKTSICSPIWPATSKTFTINNTEKNCNGVVPIKELCYTLLEDTYNWYREKPLDILKLEKKKGGPIDVYKEFIENSELKRVGMEFETGNISSAHRSMNKLLLGLKHGEIDLAIILMPIKQLAYYLTDRVTNFEELEPYFELTEGQPFIFIGFNAEAYNSNVPLIPKGSDGMSKRSIKKWKDKVENK
In the case of B2, the “Change of fluorescence over time” value ([4]; 3.2 nM break light A, 37° C.) is reported as “no change”, the “Change of fluorescence over time” value ([5]; 3.2 nM break light B, 37° C.) is reported as “increase of fluorescence” and the “Fluorescence maximum intensity upon complete cleavage, relative to that observed with DNaseI” value ([5]; same concentration of molecular break light) is reported as 75%.
